Patent US20080293712A1, “Benzo[C][2,7]Naphtyridine Derivatives, Methods of Making Thereof and Methods of Use Thereof” (WYETH, priority 2007, published 2008)
Where two headings read alike, the source gives them in different places.

Target: T1, PDK-1 (Homo sapiens, UniProt O15530)
T1 sequence (O15530 1-556): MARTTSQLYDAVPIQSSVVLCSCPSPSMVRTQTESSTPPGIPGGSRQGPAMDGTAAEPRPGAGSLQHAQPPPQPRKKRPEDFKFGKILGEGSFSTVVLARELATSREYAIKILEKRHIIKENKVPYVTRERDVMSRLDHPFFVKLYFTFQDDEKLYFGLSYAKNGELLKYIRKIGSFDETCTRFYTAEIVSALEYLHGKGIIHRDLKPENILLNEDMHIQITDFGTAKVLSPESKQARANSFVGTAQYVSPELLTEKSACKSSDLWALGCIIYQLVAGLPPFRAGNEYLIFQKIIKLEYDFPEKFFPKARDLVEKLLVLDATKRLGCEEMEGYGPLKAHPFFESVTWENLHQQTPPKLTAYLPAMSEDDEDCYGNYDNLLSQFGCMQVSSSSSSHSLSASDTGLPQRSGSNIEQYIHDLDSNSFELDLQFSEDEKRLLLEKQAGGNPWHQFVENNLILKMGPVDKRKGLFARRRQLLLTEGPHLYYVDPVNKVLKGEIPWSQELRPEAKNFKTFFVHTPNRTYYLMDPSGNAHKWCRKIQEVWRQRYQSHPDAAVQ
Assay: PDK-1 kinase inhibition ELISA assay (phosphorylation of His6-tagged SGK1 S422D by PDK-1)
Type: biochemical

[1] = PDK-1 ELISA, Table 11, read-out: Average IC50

IC50 [1] [nM] | IC50 [nM] | SMILES
197 |  | COc1cc2ncc3c(N)nc(-c4cncc(Nc5c(F)c(F)c(C(N)=O)c(F)c5F)c4)cc3c2cc1OC [Ib-190, 4-{[5-(4-amino-8,9-dimethoxybenzo[c][2,7]naphthyridin-2-yl)pyridin-3-yl]amino}-2,3,5,6-tetrafluorobenzamide]
147 |  | COc1cc(F)cc(-c2cc3c(cnc4cc(OC)c(OC)cc43)c(N)n2)c1 [Ib-242, 2-(3-fluoro-5-methoxyphenyl)-8,9-dimethoxybenzo[c][2,7]naphthyridin-4-amine]
37 |  | COc1cc2ncc3c(N)nc(-c4cncc(Nc5ccccc5NC(C)=O)c4)cc3c2cc1OC [Ib-185, N-(2-{[5-(4-amino-8,9-dimethoxybenzo[c][2,7]naphthyridin-2-yl)pyridin-3-yl]amino}phenyl)acetamide]
1000 |  | COc1cc2ncc3c(N)nc(-c4cc(F)cc(F)c4)cc3c2cc1OC [Ib-239, 2-(3,5-difluorophenyl)-8,9-dimethoxybenzo[c][2,7]naphthyridin-4-amine]
798 |  | COc1cc2ncc3c(N)nc(-c4cncc(OCC(=O)c5ccccc5)c4)cc3c2cc1OC [Ib-267, 2-{[5-(4-amino-8,9-dimethoxybenzo[c][2,7]naphthyridin-2-yl)pyridin-3-yl]oxy}-1-phenylethanone]
 | 7490 | COCCNc1cc2c(cnc3cc(OCCOC)c(OC)cc32)c(N)n1 [Ia-55, 9-methoxy-8-(2-methoxyethoxy)-N^2-(2-methoxyethyl)benzo[c]-2,7-naphthyridine-2,4-diamine]
14 |  | COc1cc2ncc3c(N)nc(-c4cncc(OC[C@@H](N)CN5CCCC5)c4)cc3c2cc1OC [Ib-110, 2-(5-{[(2S)-2-amino-3-pyrrolidin-1-ylpropyl]oxy}pyridin-3-yl)-8,9-dimethoxybenzo[c][2,7]naphthyridin-4-amine]
69.5 |  | COCCN(C)c1cc2ncc3c(N)nc(-c4cncc(OC[C@@H](N)Cc5ccccc5)c4)cc3c2cc1OC [Ia-38, 2-(5-{[(2S)-2-amino-3-phenylpropyl]oxy}pyridine-3-yl)-9-methoxy-N^8-(2-methoxyethyl)-N^8-methylbenzo[c]-2,7-naphthyridin-4,8-diamine]
3580 |  | COc1cc2ncc3c(N)nc(N(C)Cc4cccnc4)cc3c2cc1OC [Ib-64, 8,9-dimethoxy-N^2-methyl-N^2-(pyridin-3-ylmethyl)benzo[c]-2,7-naphthyridine-2,4-diamine]
2440 |  | COCCOc1cc2ncc3c(N)nc(N4CCC(C)CC4)cc3c2cc1OC [Ia-50, 9-methoxy-8-(2-methoxyethoxy)-2-(4-methylpiperidin-1-yl)benzo[c]-2,7-naphthyridin-4-amine]
2680 |  | COCCOc1cc2ncc3c(N)nc(N(C)CC4OCCO4)cc3c2cc1OC [Ia-44, N^2-(1,3-dioxolan-2-ylmethyl)-9-methoxy-8-(2-methoxyethoxy)-N^2-methylbenzo[c]-2,7-naphthyridine-2,4-diamine]
38 |  | COc1cc2ncc3c(N)nc(-c4cncc(OC[C@@H](Cc5ccccc5)NC=O)c4)cc3c2cc1OC [Ib-16, N-((1R)-2-{[5-(4-amino-8,9-dimethoxybenzo[c]-2,7-naphthyridin-2-yl)pyridin-3-yl]oxy}-1-benzylethyl)formamide]
9 |  | COc1cc2ncc3c(N)nc(-c4cncc(OC[C@@H](N)COC5=NCCN5)c4)cc3c2cc1OC [Ib-148, 2-(5-{[(2R)-2-amino-3-(4,5-dihydro-1H-imidazol-2-yloxy)propyl]oxy}pyridin-3-yl)-8,9-dimethoxybenzo[c][2,7]naphthyridin-4-amine]
6 |  | COc1cc2ncc3c(N)nc(-c4cncc(OC[C@@H](N)COc5nc6ccccc6s5)c4)cc3c2cc1OC [Ib-150, 2-(5-{[(2R)-2-amino-3-(1,3-benzothiazol-2-yloxy)propyl]oxy}pyridin-3-yl)-8,9-dimethoxybenzo[c][2,7]naphthyridin-4-amine]
3 |  | COc1cc2ncc3c(N)nc(-c4cncc(OC[C@@H](N)CSc5ccccn5)c4)cc3c2cc1OC [Ib-159, 2-(5-{[(2R)-2-amino-3-(pyridin-2-ylthio)propyl]oxy}pyridin-3-yl)-8,9-dimethoxybenzo[c][2,7]naphthyridin-4-amine]
1280 |  | COCCOc1cc2ncc3c(N)nc(OC)cc3c2cc1OC [Ia-58, 2,9-Dimethoxy-8-(2-methoxyethoxy)benzo[c]-2,7-naphthyridin-4-amine]
1000 |  | COc1cc2ncc3c(N)nc(-c4cccc(C(=O)NCc5cccnc5)c4)cc3c2cc1OC [Ib-248, 3-(4-amino-8,9-dimethoxybenzo[c][2,7]naphthyridin-2-yl)-N-(pyridin-3-ylmethyl)benzamide]

IC50 [1] [nM] | IC50 [nM] | SMILES
606 |  | COc1cc2ncc3c(N)nc(-c4cncc(C(=N)NC(C)C)c4)cc3c2cc1OC [Ib-269, 5-(4-Amino-8,9-dimethoxybenzo[c][2,7]naphthyridin-2-yl)-N-isopropylnicotin-imidamide]
 | 47 | COc1cc2ncc3c(N)nc(-c4cncc(Nc5ccccc5CO)c4)cc3c2cc1OC [Ib-196, (2-{[5-(4-amino-8,9-dimethoxybenzo[c][2,7]naphthyridin-2-yl)pyridin-3-yl]amino}phenyl)methanol]
3 |  | COc1cc2ncc3c(N)nc(-c4cncc(OC[C@@H](N)CSc5nccn5C)c4)cc3c2cc1OC [Ib-161, 2-[5-({(2R)-2-amino-3-[(1-methyl-1H-imidazol-2-yl)thio]propyl}oxy)pyridin-3-yl]-8,9-dimethoxybenzo[c][2,7]naphthyridin-4-amine]
14 |  | COc1cc2ncc3c(N)nc(-c4cncc(OC[C@@H](N)CNCC(F)(F)F)c4)cc3c2cc1OC [Ib-109, (2S)-3-{[5-(4-amino-8,9-dimethoxybenzo[c][2,7]naphthyridin-2-yl)pyridin-3-yl]oxy}-N1-(2,2,2-trifluoroethyl)propane-1,2-diamine]
32 |  | CC[C@@H](COc1cncc(-c2cc3c(cnc4cc(OC)c(OC)cc43)c(N)n2)c1)NC(=N)N [Ib-251, (S)-1-(1-(5-(4-amino-8,9-dimethoxybenzo[c][2,7]naphthyridin-2-yl)pyridin-3-yloxy)butan-2-yl)guanidine]
22 |  | COc1cc2ncc3c(N)nc(-c4cncc(OC[C@@H](N)CNc5ccc(C)c(F)c5)c4)cc3c2cc1OC [Ib-81, (2S)-3-{[5-(4-amino-8,9-dimethoxybenzo[c][2,7]naphthyridin-2-yl)pyridin-3-yl]oxy}-N1-(3-fluoro-4-methylphenyl)propane-1,2-diamine]
29 |  | COc1cc2ncc3c(N)nc(-c4cncc(OC[C@@H](N)CN5CCC(=O)CC5)c4)cc3c2cc1OC [Ib-4, 1-[(2S)-2-amino-3-{[5-(4-amino-8,9-dimethoxybenzo[c]-2,7-naphthyridin-2-yl)pyridin-3-yl]oxy}propyl]piperidin-4-one]
> 700 |  | COc1ccc(Oc2cncc(-c3cc4c(cnc5cc(OC)c(OC)cc54)c(N)n3)c2)cc1 [Ib-210, 8,9-dimethoxy-2-[5-(4-methoxyphenoxy)pyridin-3-yl]benzo[c][2,7]naphthyridin-4-amine]
1430 |  | COCCOc1cc2ncc3c(N)nc(N(C)C(C)C)cc3c2cc1OC [Ia-45, N^2-isopropyl-9-methoxy-8-(2-methoxyethoxy)-N^2-methylbenzo[c]-2,7-naphthyridine-2,4-diamine]
110 |  | CNC(=O)c1ccccc1Nc1cncc(-c2cc3c(cnc4cc(OC)c(OC)cc43)c(N)n2)c1 [Ib-187, 2-{[5-(4-amino-8,9-dimethoxybenzo[c][2,7]naphthyridin-2-yl)pyridin-3-yl]amino}-N-methylbenzamide]
10 |  | COc1cc2ncc3c(N)nc(-c4cncc(OC[C@@H](N)COc5nccc6ccccc56)c4)cc3c2cc1OC [Ib-147, 2-(5-{[(2R)-2-amino-3-(isoquinolin-1-yloxy)propyl]oxy}pyridin-3-yl)-8,9-dimethoxybenzo[c][2,7]naphthyridin-4-amine]
7 |  | COc1cc2ncc3c(N)nc(-c4cncc(OC[C@@H](N)COc5ccc(F)c(F)c5)c4)cc3c2cc1OC [Ib-143, 2-(5-{[(2S)-2-amino-3-(3,4-difluorophenoxy)propyl]oxy}pyridin-3-yl)-8,9-dimethoxybenzo[c][2,7]naphthyridin-4-amine]
> 700 |  | COc1cc2ncc3c(N)nc(-c4cncc(Nc5cccc(C#N)c5)c4)cc3c2cc1OC [Ib-179, 3-{[5-(4-amino-8,9-dimethoxybenzo[c][2,7]naphthyridin-2-yl)pyridin-3-yl]amino}benzonitrile]
4 |  | COc1cc2ncc3c(N)nc(-c4cncc(OC[C@@H](N)COc5ccc(C(F)(F)F)cn5)c4)cc3c2cc1OC [Ib-145, 2-(5-{[(2R)-2-amino-3-{[5-(trifluoromethyl)pyridin-2-yl]oxy}propyl]oxy}pyridin-3-yl)-8,9-dimethoxybenzo[c][2,7]naphthyridin-4-amine]
92 |  | COc1cc2ncc3c(N)nc(-c4cncc(OC[C@@H](N)CNC5CCCC5)c4)cc3c2cc1OC [Ib-101, (2S)-3-{[5-(4-amino-8,9-dimethoxybenzo[c][2,7]naphthyridin-2-yl)pyridin-3-yl]oxy}-N1-cyclopentylpropane-1,2-diamine]
477 |  | COc1cc2ncc3c(N)nc(-c4cncc(Nc5ccncc5)c4)cc3c2cc1OC [Ib-201, 8,9-dimethoxy-2-[5-(pyridin-4-ylamino)pyridin-3-yl]benzo[c][2,7]naphthyridin-4-Amine]
